Values quoted from earlier work in patent publication US8691803B2, “Process for the preparation of antibiotic compounds” (Savior Lifetec Corporation, priority 2011, dated 2014).

Conditions: storage; must be stored at a low temperature

**Q.** With C[C@@H](O)[C@H]1C(=O)N2C(C(=O)O)=C(S[C@@H]3CN[C@H](C(=O)Nc4cccc(C(=O)O)c4)C3)[C@H](C)[C@H]12 [ertapenem] as the molecule, how does the Temperature stability read?
**A.** unstable above −20 °C
